Test results published in publication PMC6822569 (Journal of medicinal chemistry, 2019).
Like-named read-outs stand apart in the source and are kept apart here.

Assays:
[1] = system: P. yoelii; assay: In vivo blood stage efficacy, modified 4-day test in murine P. yoelii model; settings: after 80 mg/kg × 4 days oral dosing
[2] = In vitro metabolic stability, human liver microsomes; settings: 1 μM
[3] = system: P. falciparum Dd2; assay: microbe, parasite or virus in culture; type: cell-based
[4] = system: HepG2; assay: HepG2 cytotoxicity assay; type: cell-based, human
[5] = In vivo pharmacokinetic study, single oral dose in mice, plasma and liver
[6] = target: hERG (human-ether-a-go-go-related gene) potassium channel (Homo sapiens, UniProt Q12809); assay: hERG potassium channel current, automatic parallel patch clamp; type: cell-based
Chain of hERG (human-ether-a-go-go-related gene) potassium channel (Q12809 whole entry): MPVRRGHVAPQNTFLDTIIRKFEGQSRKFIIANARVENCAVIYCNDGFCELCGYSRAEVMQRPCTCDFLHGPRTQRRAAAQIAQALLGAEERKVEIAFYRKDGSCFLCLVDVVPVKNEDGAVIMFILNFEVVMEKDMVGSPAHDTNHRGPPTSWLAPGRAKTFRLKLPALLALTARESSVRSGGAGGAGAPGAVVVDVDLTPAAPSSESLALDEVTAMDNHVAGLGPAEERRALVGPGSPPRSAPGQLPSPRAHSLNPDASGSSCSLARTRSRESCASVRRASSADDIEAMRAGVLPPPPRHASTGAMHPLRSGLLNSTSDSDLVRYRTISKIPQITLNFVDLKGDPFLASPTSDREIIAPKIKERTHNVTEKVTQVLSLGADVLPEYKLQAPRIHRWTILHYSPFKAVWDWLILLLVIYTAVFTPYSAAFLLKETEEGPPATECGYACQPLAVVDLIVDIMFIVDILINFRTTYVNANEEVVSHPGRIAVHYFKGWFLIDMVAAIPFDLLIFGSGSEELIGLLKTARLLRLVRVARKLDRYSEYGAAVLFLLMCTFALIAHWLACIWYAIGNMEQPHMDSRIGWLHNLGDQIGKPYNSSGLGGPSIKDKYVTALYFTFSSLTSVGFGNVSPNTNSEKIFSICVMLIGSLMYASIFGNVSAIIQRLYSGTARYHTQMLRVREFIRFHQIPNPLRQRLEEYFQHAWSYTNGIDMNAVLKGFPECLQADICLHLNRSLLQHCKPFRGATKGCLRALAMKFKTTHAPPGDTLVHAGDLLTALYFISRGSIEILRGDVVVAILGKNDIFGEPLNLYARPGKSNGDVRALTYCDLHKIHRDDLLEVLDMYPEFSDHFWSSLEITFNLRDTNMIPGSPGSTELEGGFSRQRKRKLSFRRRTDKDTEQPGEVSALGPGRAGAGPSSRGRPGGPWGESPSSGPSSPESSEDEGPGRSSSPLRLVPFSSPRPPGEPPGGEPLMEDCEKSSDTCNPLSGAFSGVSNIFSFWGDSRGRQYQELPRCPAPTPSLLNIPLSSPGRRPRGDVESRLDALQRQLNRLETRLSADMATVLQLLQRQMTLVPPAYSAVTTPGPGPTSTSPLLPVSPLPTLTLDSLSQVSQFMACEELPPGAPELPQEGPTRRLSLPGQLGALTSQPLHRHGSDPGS

[7] = system: P. falciparum Tm90-C2B; assay: In vitro blood stage antimalarial activity, MSF assay, strain Tm90-C2B; type: cell-based; settings: read-out: blood stage IC50 vs P. falciparum Tm90-C2B; Tm90-C2B: Atovaquone resistant clinical isolate
[8] = system: P. falciparum Dd2; assay: 72 h SYBR Green I drug susceptibility, parental Dd2; type: cell-based; settings: Plasmodium falciparum, DD2, 72 h, read-out: Dd2 IC50
[9] = read-out: blood stage IC50 vs P. falciparum Dd2, Dd2: MDR strain with Old World genetic background
[10] = liver, single oral dose of 80 mg/kg, mice
[11] = plasma, single oral dose of 80 mg/kg, mice
[12] = Plasmodium falciparum, DD2, read-out: blood stage IC50 vs P. falciparum Dd2
[13] = male, ICR, mouse, liver, po, 80 mg/kg

For “1,2-Dichloro-6-(3-(dibutylamino)propoxy)acridin-9(10H)-one [compound 75]”, the “cure in murine P. yoelii model” value [1] was “curative”, the “metabolic stability vs microsomes t1/2, human” value [2] was 0.2 h and the IC50 [3, 9] was 0.041 nM. The IC50 ([4]; read-out: cytotoxicity IC50 vs HepG2, human hepatocarcinoma HepG2 cells) was 54500 nM, the AUCinf [5, 10] was 169389 ng·h/mL and the AUClast [5, 10] was 167981 ng·h/mL. For the same compound, the CL/F [5, 10] was 8.95 mL/min/kg, the Cmax [5, 10] was 21269 ng/mL and the MRT b [5, 10] was 10.08 h. It also gave a Tmax [5, 10] of 2.75 h, a Vz/F [5, 10] of 3.605 L/kg and a t1/2 [5, 10] of 4.63 h. The AUCinf [5, 11] was 3239 ng·h/mL, the AUClast [5, 11] was 3049 ng·h/mL and the CL/F [5, 11] was 431.32 mL/min/kg. It also gave a Cmax [5, 11] of 226 ng/mL, an MRT b [5, 11] of 6.96 h and a Tmax [5, 11] of 2.75 h. The Vz/F [5, 11] was 223.865 L/kg, the t1/2 [5, 11] was 6.00 h and the “hERG activity (% inhibition at 10 uM)” value [6] was 57%. It also gave an IC50 [7] of 228 nM.

For “1,4-Dichloro-6-(3-(diethylamino)propoxy)acridin-9(10H)-one [compound 100]”, the IC50 [3, 9] was 1300 nM, the IC50 [4] was 77000 nM and the “selectivity index (SI) (D6)” value ([4]; SI = IC50 (cytotoxicity)/IC50 (D6)) was 152. The IC50 [7] was over 2500 nM.

With COc1cc(NC(C)CCCN)c2ncccc2c1 (stereo not shown) [Primaquine, reference compound] the Vd/F ([5]; male, ICR, mouse, in vivo, po, 80 mg/kg) was 4.42 L/kg.

With CCN(CC)CCOc1ccc2c(=O)c3ccc(Cl)cc3[nH]c2c1 [compound 7, 3-chloro-6-(2-(diethylamino)ethoxy)acridin-9(10H)-one] the IC50 [3, 12] was 41 nM.

CCN(CC)CCOc1ccc2c(=O)c3c(F)cc(F)cc3[nH]c2c1 [compound 46, 6-(2-(Diethylamino)ethoxy)-1,3-difluoroacridin-9(10H)-one] showed an IC50 [3, 12] of 16 nM.

In the case of CCCN(CCC)CCOc1ccc2c(=O)c3c(F)cc(F)cc3[nH]c2c1 [compound 48, 6-(2-(Dipropylamino)ethoxy)-1,3-difluoroacridin-9(10H)-one], the “cure in murine P. yoelii model” value [1] is reported as “curative”, the CL/F [5, 13] is reported as 15.5 mL/min/kg and the Vd/F [5, 13] is reported as 14 L/kg. It also gave a CL/F [5, 11] of 407.77 mL/min/kg.

CCCN(CCC)CCCOc1ccc2c(=O)c3c(F)cc(F)cc3[nH]c2c1 [compound 52, 6-(3-(Dipropylamino)propoxy)-1,3-difluoroacridin-9(10H)-one] gave a CL/F [5, 13] of 5.8 mL/min/kg and a Vd/F [5, 13] of 3.48 L/kg.

In the case of O=c1c2ccc(OCCCCl)cc2[nH]c2ccc(Cl)c(Cl)c12 [compound 71, 1,2-Dichloro-6-(3-chloropropoxy)acridin-9(10H)-one], the IC50 [3, 12] is reported as 17 nM.

Work on CCN(CC)CCOc1ccc2c(=O)c3c(Cl)c(Cl)ccc3[nH]c2c1 [compound 73, 1,2-Dichloro-6-(2-(diethylamino)ethoxy)acridin-9(10H)-one] yielded an IC50 [8] of 40 ± 5.5 nM and an IC50 [3, 12] of 12 nM.

In the case of CCCN(CCC)CCOc1ccc2c(=O)c3c(Cl)c(Cl)ccc3[nH]c2c1 [compound 74, 1,2-Dichloro-6-(2-(dipropylamino)ethoxy)acridin-9(10H)-one], the “cure in murine P. yoelii model” value [1] is reported as “curative”, the IC50 [3, 12] is reported as 0.05 nM and the CL/F [5, 13] is reported as 2.45 mL/min/kg. It also gave a Vd/F [5, 13] of 0.392 L/kg.

With CN1CCCC1CCOc1ccc2c(=O)c3c(Cl)c(Cl)ccc3[nH]c2c1 (stereo not shown) [compound 76, 1,2-Dichloro-6-(2-(1-methylpyrrolidin-2-yl)ethoxy)acridin-9(10H)-one] the IC50 [3, 12] was 172 nM.

In the case of CC(C)(C)NCCOc1ccc2c(=O)c3c(Cl)c(Cl)ccc3[nH]c2c1 [compound 78, 6-(2-(tert-Butylamino)ethoxy)-1,2-dichloroacridin-9(10H)-one], the IC50 [3, 12] is reported as 679 nM.

In the case of O=c1c2ccc(OCCNC34CC5CC(CC(C5)C3)C4)cc2[nH]c2ccc(Cl)c(Cl)c12 [compound 81, 6-(2-((Adamantan-1-yl)amino)ethoxy)-1,2-dichloroacridin-9(10H)-one], the IC50 [3, 12] is reported as 77 nM.

With CCN(CC)CCOc1ccc2[nH]c3cc(Cl)ccc3c(=O)c2c1 [compound 128, 6-chloro-2-(2-(diethylamino)ethoxy)acridin-9(10H)-one] the IC50 [3, 12] was 132 nM.
